In brackets after ≈: the same amount, converted by molar mass.
How the values were obtained:
Assay type in all cases: cell-based
[1] = tested on: STAPHYLOCOCCUS AUREUS ATCC 6538P; assay: In vitro antibacterial activity, MIC, BHI agar dilution; conditions: S. aureus ATCC 6538P, 35-37° C., 20 to 24 hours, unit assumed
[2] = tested on: STAPHYLOCOCCUS AUREUS A5177; assay: as above; conditions: S. aureus A5177, unit assumed
[3] = tested on: STAPHYLOCOCCUS AUREUS A-5278; assay: as above; conditions: S. aureus A-5278, unit assumed
[4] = tested on: STAPHYLOCOCCUS AUREUS CMX 642A; assay: as above; conditions: S. aureus CMX 642A, unit assumed
[5] = tested on: STAPHYLOCOCCUS AUREUS NCTC10649M; assay: as above; conditions: S. aureus NCTC10649M, unit assumed
[6] = tested on: STAPHYLOCOCCUS AUREUS CMX 553; assay: as above; conditions: S. aureus CMX 553, unit assumed
[7] = tested on: STAPHYLOCOCCUS AUREUS 1775; assay: as above; conditions: S. aureus 1775, unit assumed
[8] = tested on: STAPHYLOCOCCUS EPIDERMIDIS 3519; conditions: S. epidermidis 3519; BHI agar; unit assumed
EN[…] ATCC 8043 = assay: In vitro antibacterial activity, MIC, BHI agar dilution; conditions: E. faecium ATCC 8043, unit assumed
Outline: (§1)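 BHI agar dilution: twelve plates with successive compound dilutions, inoculated by replicator with 1:100 culture dilutions (1:10 for slow growers such as Micrococcus and Streptococcus), 20 to 24 hours at 35-37° C. MIC was the lowest concentration giving no growth, slight haze or sparse isolated colonies versus drug-free control; erythromycin A as class reference.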

M[…] ATCC 4698 = assay: as above; conditions: M. luteus ATCC 4698, unit assumed
Outline: as §1

M[…] ATCC 9341 = assay: as above; conditions: M. luteus ATCC 9341, unit assumed
Outline: as §1

STR[…] 508 = assay: as above; conditions: S. agalactiae CMX 508, unit assumed
Outline: as §1

[9] = tested on: STREPTOCOCCUS BOVIS A-5169; assay: as above; conditions: S. bovis A-5169, unit assumed
[10] = tested on: STREPTOCOCCUS PYOGENES EES61; assay: as above; conditions: S. pyogenes EES61, unit assumed
[11] = tested on: STREPTOCOCCUS PYOGENES 930; assay: as above; conditions: S. pyogenes 930, unit assumed
[12] = tested on: STREPTOCOCCUS PYOGENES PIU 2548; assay: as above; conditions: S. pyogenes PIU 2548, unit assumed
ESCHERICHIA COLI JUHL = conditions: E. coli JUHL; BHI agar; unit assumed
ESCHERICHIA COLI SS = assay: In vitro antibacterial activity, MIC, BHI agar dilution; conditions: E. coli SS, unit assumed
ESCHERICHIA COLI DC-2 = assay: as above; conditions: E. coli DC-2, unit assumed
ESCHERICHIA COLI H560 = assay: as above; conditions: E. coli H560, unit assumed
ESCHERICHIA COLI KNK 437 = conditions: E. coli KNK 437; BHI agar; unit assumed
[13] = tested on: ENTEROBACTER AEROGENES ATCC 13048; assay: In vitro antibacterial activity, MIC, BHI agar dilution; conditions: E. aerogenes ATCC 13048, unit assumed
[14] = tested on: KLEBSIELLA PNEUMONIAE ATCC 8045; assay: as above; conditions: K. pneumoniae ATCC 8045, unit assumed
[15] = tested on: PROVIDENCIA STUARTII CMX 640; conditions: P. stuartii CMX 640; BHI agar; unit assumed
[16] = tested on: PSEUDOMONAS AERUGINOSA BMH10; assay: In vitro antibacterial activity, MIC, BHI agar dilution; conditions: P. aeruginosa BMH10, unit assumed
[17] = tested on: PSEUDOMONAS AERUGINOSA 5007; assay: as above; conditions: P. aeruginosa 5007, unit assumed
[18] = tested on: PSEUDOMONAS AERUGINOSA K799/WT; assay: as above; conditions: P. aeruginosa K799/WT, unit assumed
[19] = tested on: PSEUDOMONAS AERUGINOSA K799/61; assay: as above; conditions: P. aeruginosa K799/61, unit assumed
PSEUDOMONAS CEPACIA 296I = assay: as above; conditions: P. cepacia 296I, unit assumed
[20] = tested on: PSEUDOMONAS AERUGINOSA DPHD-5263; assay: as above; conditions: P. aeruginosa DPHD-5263, unit assumed
[21] = tested on: PSEUDOMONAS AERUGINOSA DPHD-2862; assay: as above; conditions: P. aeruginosa DPHD-2862, unit assumed
CANDIDA ALBICANS CCH 442 = assay: as above; conditions: C. albicans CCH 442, unit assumed
[22] = tested on: MYCOBACTERIUM SMEGMATIS ATCC 114; assay: as above; conditions: M. smegmatis ATCC 114, unit assumed

| SMILES | MIC [1] | MIC [2] | MIC [3] | MIC [4] | MIC [5] | MIC [6] | MIC [7] | MIC [8] | MIC (EN[…] ATCC 8043) | MIC (M[…] ATCC 4698) | MIC (M[…] ATCC 9341) | MIC (STR[…] 508) | MIC [9] | MIC [10] | MIC [11] | MIC [12] | MIC (ESCHERICHIA COLI JUHL) | MIC (ESCHERICHIA COLI SS) | MIC (ESCHERICHIA COLI DC-2) | MIC (ESCHERICHIA COLI H560) | also measured |
| --- | --- | --- | --- | --- | --- | --- | --- | --- | --- | --- | --- | --- | --- | --- | --- | --- | --- | --- | --- | --- | --- |
| CC[C@H]1OC(=O)[C@H](C)C(=O)[C@H](C)[C@@H](O[C@@H]2O[C@H](C)C[C@H](N(C)C)[C@H]2O)[C@](C)(OC)C[C@@H](C)C2=NC3CN(CCc4ccc(N)cc4)CC3N3C(=O)O[C@@]1(C)[C@H]3[C@H]2C (stereo partly drawn) [Example 121] | 0.78 mg/L (≈ 0.977 µM) | 0.78 mg/L (≈ 0.977 µM) | > 100 mg/L | 0.78 mg/L (≈ 0.977 µM) | 0.78 mg/L (≈ 0.977 µM) | 0.78 mg/L (≈ 0.977 µM) | > 100 mg/L | 0.78 mg/L (≈ 0.977 µM) | 0.05 mg/L (≈ 0.0627 µM) | 0.2 mg/L (≈ 0.251 µM) | 0.05 mg/L (≈ 0.0627 µM) | 0.02 mg/L (≈ 0.0251 µM) | 0.01 mg/L (≈ 0.0125 µM) | 0.02 mg/L (≈ 0.0251 µM) | > 100 mg/L | 0.78 mg/L (≈ 0.977 µM) | 50 mg/L (≈ 62.7 µM) | 0.2 mg/L (≈ 0.251 µM) | 50 mg/L (≈ 62.7 µM) | 25 mg/L (≈ 31.3 µM) | MIC (ESCHERICHIA COLI KNK 437): 50 mg/L (≈ 62.7 µM); MIC [13]: 100 mg/L (≈ 125 µM); MIC [14]: 100 mg/L (≈ 125 µM); MIC [15]: > 100 mg/L; MIC [16]: 100 mg/L (≈ 125 µM); MIC [17]: > 100 mg/L; MIC [18]: > 100 mg/L; MIC [19]: 0.39 mg/L (≈ 0.489 µM); MIC (PSEUDOMONAS CEPACIA 296I): 100 mg/L (≈ 125 µM); MIC [20]: > 100 mg/L; MIC [21]: > 100 mg/L; MIC (CANDIDA ALBICANS CCH 442): > 100 mg/L; MIC [22]: 6.2 mg/L (≈ 7.77 µM) |
| CC[C@H]1OC(=O)[C@H](C)C(=O)[C@H](C)[C@@H](O[C@@H]2O[C@H](C)C[C@H](N(C)C)[C@H]2O)[C@](C)(OC)C[C@@H](C)C2=NC[C@H](CSCc3ccccc3)N3C(=O)O[C@@]1(C)[C@H]3[C@H]2C [Example 66] | 0.1 mg/L (≈ 0.129 µM) | 0.1 mg/L (≈ 0.129 µM) | > 100 mg/L | 0.2 mg/L (≈ 0.258 µM) | 0.1 mg/L (≈ 0.129 µM) | 0.2 mg/L (≈ 0.258 µM) | > 100 mg/L | 0.2 mg/L (≈ 0.258 µM) | 0.02 mg/L (≈ 0.0258 µM) | 0.2 mg/L (≈ 0.258 µM) | 0.02 mg/L (≈ 0.0258 µM) | 0.01 mg/L (≈ 0.0129 µM) | 0.01 mg/L (≈ 0.0129 µM) | 0.01 mg/L (≈ 0.0129 µM) | > 100 mg/L | 0.39 mg/L (≈ 0.504 µM) | 25 mg/L (≈ 32.3 µM) | 0.39 mg/L (≈ 0.504 µM) | 12.5 mg/L (≈ 16.1 µM) | 12.5 mg/L (≈ 16.1 µM) | MIC (ESCHERICHIA COLI KNK 437): 25 mg/L (≈ 32.3 µM); MIC [13]: > 100 mg/L; MIC [14]: > 100 mg/L; MIC [15]: > 100 mg/L; MIC [16]: 100 mg/L (≈ 129 µM); MIC [17]: > 100 mg/L; MIC [18]: 100 mg/L (≈ 129 µM); MIC [19]: 0.39 mg/L (≈ 0.504 µM); MIC (PSEUDOMONAS CEPACIA 296I): 100 mg/L (≈ 129 µM); MIC [20]: 100 mg/L (≈ 129 µM); MIC [21]: > 100 mg/L; MIC (CANDIDA ALBICANS CCH 442): > 100 mg/L; MIC [22]: 0.39 mg/L (≈ 0.504 µM) |
| CC[C@H]1OC(=O)[C@H](C)C(=O)[C@H](C)[C@@H](O[C@@H]2O[C@H](C)C[C@H](N(C)C)[C@H]2O)[C@](C)(OC)C[C@@H](C)C2=N[C@@H](COCc3ccccc3)CN3C(=O)O[C@@]1(C)[C@H]3[C@H]2C [Example 89] | 0.39 mg/L (≈ 0.515 µM) | 0.39 mg/L (≈ 0.515 µM) | > 100 mg/L | 0.39 mg/L (≈ 0.515 µM) | 0.39 mg/L (≈ 0.515 µM) | 0.39 mg/L (≈ 0.515 µM) | > 100 mg/L | 0.39 mg/L (≈ 0.515 µM) | 0.1 mg/L (≈ 0.132 µM) | 0.39 mg/L (≈ 0.515 µM) | 0.05 mg/L (≈ 0.066 µM) | 0.01 mg/L (≈ 0.0132 µM) | 0.01 mg/L (≈ 0.0132 µM) | 0.02 mg/L (≈ 0.0264 µM) | 100 mg/L (≈ 132 µM) | 0.2 mg/L (≈ 0.264 µM) | 100 mg/L (≈ 132 µM) | 0.39 mg/L (≈ 0.515 µM) | 100 mg/L (≈ 132 µM) | 25 mg/L (≈ 33 µM) | MIC (ESCHERICHIA COLI KNK 437): 100 mg/L (≈ 132 µM); MIC [13]: > 100 mg/L; MIC [14]: > 100 mg/L; MIC [15]: > 100 mg/L; MIC [16]: > 100 mg/L; MIC [17]: > 100 mg/L; MIC [18]: > 100 mg/L; MIC [19]: 1.56 mg/L (≈ 2.06 µM); MIC (PSEUDOMONAS CEPACIA 296I): 25 mg/L (≈ 33 µM); MIC [20]: 100 mg/L (≈ 132 µM); MIC [21]: > 100 mg/L; MIC (CANDIDA ALBICANS CCH 442): > 100 mg/L; MIC [22]: 0.78 mg/L (≈ 1.03 µM) |

Reference: patent US6274715A, “Tricyclic erythromycin derivatives” (priority 1997, dated 2001)
